Experimental findings from patent US7696161B2, “Exendin agonist compounds” (Amylin Pharmaceuticals, Inc., priority 1997, dated 2010) are described below.

The test system of one assay is C57BLKS/J-m-db mice. Kind of assay: Determination of blood glucose levels in db/db mice. Format: in vivo. Conditions: 1 μg subcutaneous, plasma glucose one hour after injection vs baseline.
For assay [1], the target named is cyclase (RINm5f membranes). In words: Cyclase activation study (cAMP by SPA immunoassay, membranes). Format: biochemical. Conditions: cAMP in membranes, 20 minutes incubation at 37° C. On the procedure: GLP-1(7-36) [NH2] was purchased from Bachem (Torrance, Calif.). All other peptides were prepared using synthesis methods such as those described therein. All chemicals were of the highest commercial grade. The cAMP SPA immunoassay was purchased from Amersham. The radioligands were purchased from New England Nuclear (Boston, Mass.). […] Cells were grown to confluence then harvested and homogenized using on a Polytron homogenizer. Cell homogenates were stored frozen at −70° C. until used. […] Membranes and peptides were combined in […] of assay buffer in 96 well filter-bottom plates (Millipore Corp., Bedford, Mass.). […] Supernatant cAMP contents were quantitated by SPA immunoassay. […] The biological activity of a particular sample was expressed as an EC50 value, calculated as described above.

In general, EC50 refers to the concentration that produces a half-maximal response. Read a low EC50 as a more potent agent. As for `CC[C@H](C)[C@H](NC(=O)[C@H](Cc1ccccc1)NC(=O)[C@H](CC(C)C)NC(=O)[C@H](CCCNC(=N)N)NC(=O)[C@@H](NC(=O)[C@H](C)NC(=O)[C@H](C)NC(=O)[C@H](CCC(=O)O)NC(=O)[C@H](CCC(=O)O)NC(=O)[C@H](CC(C)C)NC(=O)[C@H](CCC(N)=O)NC(=O)[C@H](CCCCN)NC(=O)[C@H](CO)NC(=O)[C@H](CC(C)C)NC(=O)[C@H](CC(=O)O)NC(=O)[C@H](CO)NC(=O)[C@@H](NC(=O)[C@H](Cc1ccccc1)NC(=O)[C@@H](NC(=O)CNC(=O)[C@H](CCC(=O)O)NC(=O)CNC(=O)[C@@H](N)Cc1c[nH]cn1)[C@@H](C)O)[C@@H](C)O)C(C)C)C(=O)N[C@@H](CCC(=O)O)C(=O)N[C@@H](Cc1ccccc1)C(=O)N[C@@H](CC(C)C)C(=O)N[C@@H](CCCCN)C(=O)N[C@@H](CC(N)=O)C(N)=O` [Compound 15], the “% drop in glucose” value in the assay with C57BLKS/J-m-db mice stood at 45%. Moreover, it took 1.05 nM to reach a half-maximal effect in assay [1] (EC50).

`CC[C@H](C)[C@H](NC(=O)[C@H](Cc1ccccc1)NC(=O)[C@H](CC(C)C)NC(=O)[C@H](CCCNC(=N)N)NC(=O)[C@@H](NC(=O)[C@H](C)NC(=O)[C@H](CCC(=O)O)NC(=O)[C@H](CCC(=O)O)NC(=O)[C@H](CCC(=O)O)NC(=O)[C@H](C)NC(=O)[C@H](CCC(N)=O)NC(=O)[C@H](CCCCN)NC(=O)[C@H](CO)NC(=O)[C@H](CC(C)C)NC(=O)[C@H](CC(=O)O)NC(=O)[C@H](CO)NC(=O)[C@@H](NC(=O)[C@H](Cc1ccccc1)NC(=O)[C@@H](NC(=O)CNC(=O)[C@H](CCC(=O)O)NC(=O)CNC(=O)[C@@H](N)Cc1c[nH]cn1)[C@@H](C)O)[C@@H](C)O)C(C)C)C(=O)N[C@@H](CCC(=O)O)C(=O)N[C@@H](Cc1ccccc1)C(=O)N[C@@H](CC(C)C)C(=O)N[C@@H](CCCCN)C(=O)N[C@@H](CC(N)=O)C(N)=O` [Compound 12]: the “% drop in glucose” value in the assay with C57BLKS/J-m-db mice came to 53%. In assay [1], this compound yielded an EC50 of 15.6 nM.

Consider `CC[C@H](C)[C@H](NC(=O)[C@H](Cc1ccccc1)NC(=O)[C@H](CC(C)C)NC(=O)[C@H](CCCNC(=N)N)NC(=O)[C@@H](NC(=O)[C@H](C)NC(=O)[C@H](CCC(=O)O)NC(=O)[C@H](CCC(=O)O)NC(=O)[C@H](CCC(=O)O)NC(=O)[C@H](CC(C)C)NC(=O)[C@H](CCC(N)=O)NC(=O)[C@H](CCCCN)NC(=O)[C@H](C)NC(=O)[C@H](CC(C)C)NC(=O)[C@H](CC(=O)O)NC(=O)[C@H](CO)NC(=O)[C@@H](NC(=O)[C@H](Cc1ccccc1)NC(=O)[C@@H](NC(=O)CNC(=O)[C@H](CCC(=O)O)NC(=O)CNC(=O)[C@@H](N)Cc1c[nH]cn1)[C@@H](C)O)[C@@H](C)O)C(C)C)C(=O)N[C@@H](CCC(=O)O)C(=O)N[C@@H](Cc1ccccc1)C(=O)N[C@@H](CC(C)C)C(=O)N[C@@H](CCCCN)C(=O)N[C@@H](CC(N)=O)C(N)=O` [Compound 9], for which, in the assay with C57BLKS/J-m-db mice, the “% drop in glucose” value was 41%. The compound also gave an EC50 in assay [1] of 1.68 nM.

In the case of `CC[C@H](C)[C@H](NC(=O)[C@H](Cc1ccccc1)NC(=O)[C@H](CC(C)C)NC(=O)[C@H](CCCNC(=N)N)NC(=O)[C@@H](NC(=O)[C@H](C)NC(=O)[C@H](CCC(=O)O)NC(=O)[C@H](CCC(=O)O)NC(=O)[C@H](CCC(=O)O)NC(=O)[C@H](CC(C)C)NC(=O)[C@H](CCC(N)=O)NC(=O)[C@H](CCCCN)NC(=O)[C@H](CO)NC(=O)[C@H](CC(C)C)NC(=O)[C@H](CC(=O)O)NC(=O)[C@H](CO)NC(=O)[C@@H](NC(=O)[C@H](Cc1ccccc1)NC(=O)[C@@H](NC(=O)CNC(=O)[C@H](CCC(=O)O)NC(=O)[C@H](C)NC(=O)[C@@H](N)Cc1c[nH]cn1)[C@@H](C)O)[C@@H](C)O)C(C)C)C(=O)N[C@@H](CCC(=O)O)C(=O)N[C@@H](Cc1ccccc1)C(=O)N[C@@H](CC(C)C)C(=O)N[C@@H](CCCCN)C(=O)N[C@@H](CC(N)=O)C(N)=O` [Compound 4], the “% drop in glucose” value in the assay on C57BLKS/J-m-db mice was 27%. Besides, the EC50 in assay [1] stood at 0.22 nM.

On to `CC[C@H](C)[C@H](NC(=O)[C@H](Cc1ccccc1)NC(=O)[C@H](CC(C)C)NC(=O)[C@H](CCCNC(=N)N)NC(=O)[C@@H](NC(=O)[C@H](C)NC(=O)[C@H](CCC(=O)O)NC(=O)[C@H](CCC(=O)O)NC(=O)[C@H](CCC(=O)O)NC(=O)[C@H](CC(C)C)NC(=O)[C@H](CCC(N)=O)NC(=O)[C@H](CCCCN)NC(=O)[C@H](CO)NC(=O)[C@H](C)NC(=O)[C@H](CC(=O)O)NC(=O)[C@H](CO)NC(=O)[C@@H](NC(=O)[C@H](Cc1ccccc1)NC(=O)[C@@H](NC(=O)CNC(=O)[C@H](CCC(=O)O)NC(=O)CNC(=O)[C@@H](N)Cc1c[nH]cn1)[C@@H](C)O)[C@@H](C)O)C(C)C)C(=O)N[C@@H](CCC(=O)O)C(=O)N[C@@H](Cc1ccccc1)C(=O)N[C@@H](CC(C)C)C(=O)N[C@@H](CCCCN)C(=O)N[C@@H](CC(N)=O)C(N)=O` [Compound 8], for which the “% drop in glucose” value in the assay on C57BLKS/J-m-db mice worked out at 44%. Besides, a half-maximal response in assay [1] (EC50) required 6.8 nM.

Regarding `CC[C@H](C)[C@H](NC(=O)[C@H](Cc1ccccc1)NC(=O)[C@H](C)NC(=O)[C@H](CCCNC(=N)N)NC(=O)[C@@H](NC(=O)[C@H](C)NC(=O)[C@H](CCC(=O)O)NC(=O)[C@H](CCC(=O)O)NC(=O)[C@H](CCC(=O)O)NC(=O)[C@H](CC(C)C)NC(=O)[C@H](CCC(N)=O)NC(=O)[C@H](CCCCN)NC(=O)[C@H](CO)NC(=O)[C@H](CC(C)C)NC(=O)[C@H](CC(=O)O)NC(=O)[C@H](CO)NC(=O)[C@@H](NC(=O)[C@H](Cc1ccccc1)NC(=O)[C@@H](NC(=O)CNC(=O)[C@H](CCC(=O)O)NC(=O)CNC(=O)[C@@H](N)Cc1c[nH]cn1)[C@@H](C)O)[C@@H](C)O)C(C)C)C(=O)N[C@@H](CCC(=O)O)C(=O)N[C@@H](Cc1ccccc1)C(=O)N[C@@H](CC(C)C)C(=O)N[C@@H](CCCCN)C(=O)N[C@@H](CC(N)=O)C(N)=O` [Compound 18], in the assay on C57BLKS/J-m-db mice, the “% drop in glucose” value was 50%. The compound also displayed an EC50 in assay [1] of 0.76 nM.

With `CC[C@H](C)[C@H](NC(=O)[C@H](Cc1ccccc1)NC(=O)[C@H](CC(C)C)NC(=O)[C@H](CCCNC(=N)N)NC(=O)[C@@H](NC(=O)[C@H](C)NC(=O)[C@H](CCC(=O)O)NC(=O)[C@H](C)NC(=O)[C@H](CCC(=O)O)NC(=O)[C@H](CC(C)C)NC(=O)[C@H](CCC(N)=O)NC(=O)[C@H](CCCCN)NC(=O)[C@H](CO)NC(=O)[C@H](CC(C)C)NC(=O)[C@H](CC(=O)O)NC(=O)[C@H](CO)NC(=O)[C@@H](NC(=O)[C@H](Cc1ccccc1)NC(=O)[C@@H](NC(=O)CNC(=O)[C@H](CCC(=O)O)NC(=O)CNC(=O)[C@@H](N)Cc1c[nH]cn1)[C@@H](C)O)[C@@H](C)O)C(C)C)C(=O)N[C@@H](CCC(=O)O)C(=O)N[C@@H](Cc1ccccc1)C(=O)N[C@@H](CC(C)C)C(=O)N[C@@H](CCCCN)C(=O)N[C@@H](CC(N)=O)C(N)=O` [Compound 14], the “% drop in glucose” value with C57BLKS/J-m-db mice amounted to 54%. In assay [1], the EC50 came to 1.11 nM.

On to `CC[C@H](C)[C@H](NC(=O)[C@H](Cc1ccccc1)NC(=O)[C@H](CC(C)C)NC(=O)[C@H](CCCNC(=N)N)NC(=O)[C@@H](NC(=O)[C@H](C)NC(=O)[C@H](CCC(=O)O)NC(=O)[C@H](CCC(=O)O)NC(=O)[C@H](CCC(=O)O)NC(=O)[C@H](CC(C)C)NC(=O)[C@H](C)NC(=O)[C@H](CCCCN)NC(=O)[C@H](CO)NC(=O)[C@H](CC(C)C)NC(=O)[C@H](CC(=O)O)NC(=O)[C@H](CO)NC(=O)[C@@H](NC(=O)[C@H](Cc1ccccc1)NC(=O)[C@@H](NC(=O)CNC(=O)[C@H](CCC(=O)O)NC(=O)CNC(=O)[C@@H](N)Cc1c[nH]cn1)[C@@H](C)O)[C@@H](C)O)C(C)C)C(=O)N[C@@H](CCC(=O)O)C(=O)N[C@@H](Cc1ccccc1)C(=O)N[C@@H](CC(C)C)C(=O)N[C@@H](CCCCN)C(=O)N[C@@H](CC(N)=O)C(N)=O` [Compound 11], for which the “% drop in glucose” value in the assay with C57BLKS/J-m-db mice stood at 40%. This compound registered an EC50 in assay [1] of 0.48 nM.

`CC[C@H](C)[C@H](NC(=O)[C@H](Cc1ccccc1)NC(=O)[C@H](CC(C)C)NC(=O)[C@H](C)NC(=O)[C@@H](NC(=O)[C@H](C)NC(=O)[C@H](CCC(=O)O)NC(=O)[C@H](CCC(=O)O)NC(=O)[C@H](CCC(=O)O)NC(=O)[C@H](CC(C)C)NC(=O)[C@H](CCC(N)=O)NC(=O)[C@H](CCCCN)NC(=O)[C@H](CO)NC(=O)[C@H](CC(C)C)NC(=O)[C@H](CC(=O)O)NC(=O)[C@H](CO)NC(=O)[C@@H](NC(=O)[C@H](Cc1ccccc1)NC(=O)[C@@H](NC(=O)CNC(=O)[C@H](CCC(=O)O)NC(=O)CNC(=O)[C@@H](N)Cc1c[nH]cn1)[C@@H](C)O)[C@@H](C)O)C(C)C)C(=O)N[C@@H](CCC(=O)O)C(=O)N[C@@H](Cc1ccccc1)C(=O)N[C@@H](CC(C)C)C(=O)N[C@@H](CCCCN)C(=O)N[C@@H](CC(N)=O)C(N)=O` [Compound 17]: in the assay with C57BLKS/J-m-db mice, the “% drop in glucose” value came out at 45%. Besides, the EC50 in assay [1] came to 43.6 nM.

Turning to `CC[C@H](C)[C@H](NC(=O)[C@H](Cc1ccccc1)NC(=O)[C@H](CC(C)C)NC(=O)[C@H](CCCNC(=N)N)NC(=O)[C@@H](NC(=O)[C@H](C)NC(=O)[C@H](CCC(=O)O)NC(=O)[C@H](CCC(=O)O)NC(=O)[C@H](CCC(=O)O)NC(=O)[C@H](CC(C)C)NC(=O)[C@H](CCC(N)=O)NC(=O)[C@H](CCCCN)NC(=O)[C@H](CO)NC(=O)[C@H](CC(C)C)NC(=O)[C@H](CC(=O)O)NC(=O)[C@H](CO)NC(=O)[C@@H](NC(=O)[C@H](Cc1ccccc1)NC(=O)[C@H](C)NC(=O)CNC(=O)[C@H](CCC(=O)O)NC(=O)CNC(=O)[C@@H](N)Cc1c[nH]cn1)[C@@H](C)O)C(C)C)C(=O)N[C@@H](CCC(=O)O)C(=O)N[C@@H](Cc1ccccc1)C(=O)N[C@@H](CC(C)C)C(=O)N[C@@H](CCCCN)C(=O)N[C@@H](CC(N)=O)C(N)=O` [Compound 5], the “% drop in glucose” value in the assay with C57BLKS/J-m-db mice is on record as 47%. The compound further had an EC50 in assay [1] of 9.85 nM.
